The target of one assay is NRAS G12D C118S (Homo sapiens (Human), UniProt P01111, C118S/G12D). In words: NRas G12D Surface Plasmon Resonance (SPR) binding assay. Particulars: Avi-tagged biotinylated NRAS G12D C118S on streptavidin chip, 25° C., 1:1 kinetic or steady-state fit. The gist of the method:
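Biotinylated Avi-tagged NRAS G12D C118S was captured at about 600 RU on a streptavidin chip alongside a blank reference channel. Compounds were run as 10-point 1:3 dilution series in HBS-P+ pH 7.4 with 5 mM MgCl2 and 3% DMSO, using a 2–4% DMSO solvent correction. A control compound at 10 μM was injected periodically to check protein activity.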

Assay [1] concerns THP-1 cells expressing G12D (NRAS G12D). In words: Inhibition of NRAS G12D-mediated phosphorylation of ERK (AlphaLISA p-ERK1/2) in THP-1 cells. It counts as cell-based. The conditions noted are these: Homo sapiens, THP-1, 2 h, 2 hours incubation, HBSS with 0% or 10% FBS, p-ERK1/2 (Thr202/Tyr204) AlphaLISA, read-out: pERK THP-1 IC50. Summed up: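 THP-1 cells expressing NRAS G12D, seeded in HBSS with 0% or 10% FBS, were exposed to test compound (1% DMSO final) for 2 h. p-ERK1/2 (Thr202/Tyr204) read by AlphaLISA SureFire Ultra. IC50 from curves normalized to no-inhibitor (100%) and 1 μM trametinib (0%) controls.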
(Alpha assays give light when donor and acceptor beads are brought close together.)

Some results are limits rather than exact numbers.

One may read the Kd as the equilibrium constant for the complex coming apart. High values mean weaker binding, low ones tighter binding. By IC50 is commonly meant the concentration needed to halve the response being measured.

NRAS G12D C118S, sequence (P01111 whole entry G12D/C118S): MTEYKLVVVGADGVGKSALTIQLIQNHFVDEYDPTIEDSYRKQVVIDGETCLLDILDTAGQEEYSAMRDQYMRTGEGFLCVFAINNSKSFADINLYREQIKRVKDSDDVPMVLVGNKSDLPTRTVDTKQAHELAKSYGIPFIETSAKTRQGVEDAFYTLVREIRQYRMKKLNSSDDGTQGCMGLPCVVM

`C#Cc1c(F)ccc2cc(O)cc(-c3ncc4c([C@H]5[C@@H]6CNC[C@@H]65)nn(CCCN(C)C)c4c3F)c12` [Example 102, 4-(3-((1R,5S,6r)-3-azabicyclo[3.1.0]hexan-6-yl)-1-(3-(dimethylamino)propyl)-7-fluoro-1H-pyrazolo[4,3-c]pyridin-6-yl)-5-ethynyl-6-fluoronaphthalen-2-ol] gave a Kd at NRAS G12D C118S of 7600 nM. Further, the IC50 in assay [1] was > 10000 nM.

On NRAS G12D C118S, `C#Cc1c(F)ccc2cc(O)cc(-c3ncc4c(C5[C@H]6CNC[C@@H]56)cn(CCO)c4c3F)c12` (stereo partly drawn) [Example 103, 4-(3-((1R,5S)-3-azabicyclo[3.1.0]hexan-6-yl)-7-fluoro-1-(2-hydroxyethyl)-1H-pyrrolo[3,2-c]pyridin-6-yl)-5-ethynyl-6-fluoronaphthalen-2-ol] returned a Kd of 488 nM. The IC50 in assay [1] was > 50000 nM.

`C#Cc1c(F)ccc2cc(O)cc(-c3ncc4c([C@H]5[C@@H]6CNC[C@@H]65)nn([C@@H]5C[C@@H]5C)c4c3F)c12` [Example 104, 4-(3-((1R,5S,6r)-3-azabicyclo[3.1.0]hexan-6-yl)-7-fluoro-1-((1R,2S)-2-methylcyclopropyl)-1H-pyrazolo[4,3-c]pyridin-6-yl)-5-ethynyl-6-fluoronaphthalen-2-ol] displayed a Kd at NRAS G12D C118S of 1170 nM. For the same compound, the IC50 in assay [1] was determined as 12500 nM.

Regarding `C#Cc1c(F)ccc2cc(O)cc(-c3ncc4c(N5CC6CCC5CN6)nn(C5CC5)c4c3F)c12` (stereo not shown) [Example 105, 4-(3-(2,5-diazabicyclo[2.2.2]octan-2-yl)-1-cyclopropyl-7-fluoro-1H-pyrazolo[4,3-c]pyridin-6-yl)-5-ethynyl-6-fluoronaphthalen-2-ol], the affinity on NRAS G12D C118S, expressed as Kd, was 18.5 nM. Moreover, in assay [1], the IC50 is 515 nM.

The compound `C#Cc1c(F)ccc2cc(O)cc(-c3ncc4c(N5C[C@@H]6CC[C@H]5CN6)nn(C5CC5)c4c3F)c12` [Example 106, 4-(3-((1S,4S)-2,5-diazabicyclo[2.2.2]octan-2-yl)-1-cyclopropyl-7-fluoro-1H-pyrazolo[4,3-c]pyridin-6-yl)-5-ethynyl-6-fluoronaphthalen-2-ol] registered a Kd at NRAS G12D C118S of 9.39 nM. Moreover, the IC50 in assay [1] worked out at 163 nM.

The values are drawn from US20260022118A1, “HETEROCYCLIC COMPOUNDS AS NRAS INHIBITORS” (Board of Regents, The University of Texas System, priority 2023, published 2026).
